Measured values as given in article PMC6332320, “Factors Influencing Oral Bioavailability of Thai Mango Seed Kernel Extract and Its Key Phenolic Principles” (Molecules, 2015).
Where two headings read alike, the source gives them in different places.

What was measured:
Caco-2 cell lysates = assay: Biological stability in Caco-2 cell lysates; type: in vitro ADME, human; conditions: for stability in HBSS at pH 6 (blank control) / stability in Caco-2 cell lysates / stability in inactive Caco-2 cell lysates: individual compound 100 µM; for stability in HBSS at pH 6 (blank control): HBSS pH 6, up to 24 h; for stability in Caco-2 cell lysates: active cell lysates, within 24 h; for stability in inactive Caco-2 cell lysates: inactive (heated) cell lysates
Protocol: Caco-2 cells were cultured in T75 flasks at a seeding density of 2 × 10^6 cells/flask for 12–15 days. The cell lysate was freshly prepared by washing the cells twice with ice-cold HBSS at pH 6 (12 mL). The cells were then collected by scraping and resuspending in ice-cold HBSS at pH 6 (7.5 mL/flask). The cell suspension was vortexed and sonicated in an ice water bath for 30 min to obtain the lysate, which was kept on ice until use, and its cellular protein concentration was determined using a BCA™ protein assay kit (Thermo Fisher Scientific, Rockford, IL, USA) with bovine serum albumin as a reference standard.
Many phenolic compounds were subject to sulfation and glucuronidation by Caco-2 cells at concentrations higher than 20 μM [16, 21, 43] and the metabolites of GA, MG and PGG could not be observed in Caco-2 transport experiment. Therefore, the concentration of the standard pure compounds used in this study was higher than that used in the chemical stability experiment. After preparing the cell lysate, the test compounds were prepared by dissolution in HBSS at pH 6 and then added to the lysates for a final concentration of 1.08 mg/mL protein to obtain final individual concentrations of 100 μM for GA, MG and PGG and 0.75 mg/mL for MSKE, which is equivalent to concentrations of 55.12 ± 4.57 µM GA, 7.56 ± 0.85 µM MG and 110.02 ± 17.52 µM PGG. The mixtures were then incubated in a water bath at 37 °C for 24 h, and samples (50 µL for standard compounds, and 200 µL for MSKE) were collected at 0, 4, 6 and 24 h. Each sample was then added to an ice-cold 50% methanol (150 µL for GA, MG and PGG, and 600 µL for MSKE) to stop the reaction, vortexed and centrifuged at 15,500 rpm for 15 min, and the supernatant was injected into the UPLC for analysis.
The chemical and biological stabilities of the phenolic compounds were expressed as the concentration of the analyte at different time points relative to the concentration of the same analyte at time zero multiplied by 100 (% recovery).

[1] = Caco-2 transepithelial transport experiment; type: in vitro ADME, human; conditions: human
Protocol: The transport experiment using Caco-2 monolayer was performed according to the criteria in our laboratory as previously reported with slight modification. Briefly, the cell monolayers were prepared by seeding 400,000 cells onto a polycarbonate insert, which has a surface area and pore size of 4.2 cm^2 and 3 μm, respectively (Nunc™, Thermo Fisher Scientific, Waltham, MA, USA). Cells were maintained in a humidified atmosphere at 37 °C (90% humidity and 5% CO2) and fed every other day. After 19 to 22 days post-seeding, the cell monolayers were used in the experiments. Before the experiment, the monolayers were quickly washed twice with pre-warmed HBSS at pH 7.4 (37 °C). The integrity of each monolayer was then verified by measuring the transepithelial electrical resistance (TEER) using a Millicell® ERS meter (Millipore, Bedford, MA, USA), and layers with TEER values less than 400 Ω/cm^2 relative to that of the blank insert were discarded. Then, the monolayers were incubated with the HBSS buffer at 37 °C for 1 h, and the incubation buffer was then aspirated. The test compounds were dissolved in HBSS at pH 6 to obtain final concentrations for the individual compounds (20 μM), mixture (20 μM) and MSKE (0.25 mg/mL), which were then loaded onto the A or B side (2.6 mL) as the donor side. A 2.6 mL aliquot of HBSS at pH 6 without the test compounds was loaded into the other side as the receiver side. After incubation at 37 °C, 0.6 mL of sample was collected from the receiver side at indicated times (60, 120, 180 and 240 min), and the same volume of receiver medium was replaced after each sampling. At the end of the experiment, the cells were washed twice with ice-cold HBSS at pH 6. The cells in each well were then collected and resuspended in 600 μL of HBSS at pH 6, and sonicated in an ice water bath at an output of 9 W for 30 min to obtain the cell lysates. The lysate was divided into the following aliquots: (1) 20 μL for quantitative protein assessment using a BCA™ protein assay kit and (2) 580 μL for quantitative test compounds. The samples collected from the transport study were stored at −20 °C until the UPLC or LC–MS/MS analysis. The experiments were performed in triplicate.
The apparent permeability coefficient (Papp, cm/s) of each compound was calculated according to the following equation (Equation (1)): (1) Papp= dQ/dt×1/AC0 where dQ/dt is the compound permeation rate (nmol/s), A denotes the membrane surface area, and C0 is the initial concentration on the donor side (µM). The efflux ratio was calculated according to the following equation (Equation (2)): (2) Efflux ratio= Papp BA(mean)/Papp AB(mean) where Papp BA (mean) and Papp AB (mean) are the average apparent permeability coefficients of each compound from side B to side A, and from side A to side B, respectively.

[2] = cited from earlier work
[3] = human, in vivo, po; cited from earlier work

| relative recoveries after incubation with Caco-2 cell lysates (Caco-2 cell lysates; as principle in MSKE 0.75 mg/mL, 24 h, relative to HBSS) | Papp A→B at 240 min ([1]; Caco-2, pH 6, as principle in MSKE 0.25 mg/mL, HBSS pH 6, read-out: Papp A to B) [×10⁻⁶ cm/s] | Papp B→A at 240 min ([1]; Caco-2, pH 6, as principle in MSKE 0.25 mg/mL, HBSS pH 6, read-out: Papp B to A) [×10⁻⁶ cm/s] | efflux ratio at 240 min ([1]; Caco-2, pH 6, as principle in MSKE 0.25 mg/mL, Papp BA/Papp AB, read-out: Efflux Ratios) | efflux ratio at 240 min, 20 µM ([1]; Caco-2, pH 6, in mixture 20 μM, Papp BA/Papp AB, read-out: Efflux Ratios) | Papp A→B at 240 min, 20 µM ([1]; Caco-2, pH 6, in mixture of GA, MG, PGG 20 μM, HBSS pH 6) [×10⁻⁶ cm/s] | Papp B→A at 240 min, 20 µM ([1]; Caco-2, pH 6, in mixture of GA, MG, PGG 20 μM, HBSS pH 6, read-out: Papp B to A) [×10⁻⁶ cm/s] | Papp A→B at 240 min, 20 µM ([1]; Caco-2, pH 6, individual compound 20 μM, HBSS pH 6) [×10⁻⁶ cm/s] | Papp B→A at 240 min, 20 µM ([1]; Caco-2, pH 6, individual compound 20 μM, HBSS pH 6, read-out: Papp B to A) [×10⁻⁶ cm/s] | efflux ratio at 240 min, 20 µM ([1]; Caco-2, pH 6, individual compound 20 μM, Papp BA/Papp AB, read-out: Efflux Ratios) | SMILES | stability in HBSS at pH 6 (blank control) (Caco-2 cell lysates) | stability in Caco-2 cell lysates (Caco-2 cell lysates) | stability in inactive Caco-2 cell lysates (Caco-2 cell lysates; 24 h) | Papp A→B at 240 min ([1]; Caco-2, pH 6, Papp A to B) [×10⁻⁶ cm/s] | Papp B→A at 240 min ([1]; Caco-2, pH 6, Papp B to A) [×10⁻⁶ cm/s] | Papp B→A at 240 min, 20 µM ([1]; Caco-2, pH 6, Papp B to A) [×10⁻⁶ cm/s] | Cmax ([2]; rat, in vivo, po, 100 umol/kg) [nM] | elimination t1/2 ([2]; rat, in vivo, po, 100 umol/kg) [min] | Tmax ([2]; rats, p.o., GA as pure compound or component of rhubarb and grape seed extract, plasma) | t1/2 [3] [min] |
| --- | --- | --- | --- | --- | --- | --- | --- | --- | --- | --- | --- | --- | --- | --- | --- | --- | --- | --- | --- | --- |
|  |  |  |  |  |  |  |  |  |  | O=C(O)c1cc(O)c(O)c(O)c1 [GA, Gallic acid] | stable | degraded | stable | 1.46 ± 0.21 | 8.04 ± 0.43 | 1.02 ± 0.29 | 710 | 24 | approximately 60 min | ~60 |
| decreased relative recoveries | 17.6 ± 1.54 | 11.3 ± 0.31 | 0.66 | 0.51 | 12.5 ± 0.63 | 6.33 ± 0.57 | 13.6 ± 0.4 | 7.02 ± 1.11 | 0.52 | COC(=O)c1cc(O)c(O)c(O)c1 [MG, methyl gallate] | stable | degraded | stable |  |  |  |  |  |  |  |
